# Legend:
# [1] = test system: Kato III; assay: MTS assay (cell growth inhibition), Kato III; type: cell-based; conditions: Kato III cells, 72 hours incubation with test compound; concentration not given
# Method in brief: (§1)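 First, seed 3000 cells per well in low-serum (1% FBS) DMEM and culture 18 h. Next, add compounds prepared at 300× in DMSO and diluted 1:40 in DMEM; incubate 72 h. Finally, add MTS/PMS for 4 h and measure absorbance at 492 nm.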
# [2] = test system: PC-3; assay: MTS assay (cell growth inhibition), PC-3; type: cell-based; conditions: PC-3 cells, 72 hours incubation with test compound; concentration not given
# Method in brief: as §1
# [3] = test system: PACA-2; assay: MTS assay (cell growth inhibition), PACA-2; type: cell-based; conditions: PACA-2 cells, 72 hours incubation with test compound; concentration not given
# Method in brief: as §1
# [4] = test system: NCI-H1299; assay: MTS assay (cell growth inhibition), NCI-H1299; type: cell-based; conditions: NCI-H1299 cells, 72 hours incubation with test compound; concentration not given
# Method in brief: as §1
# [5] = test system: MDA-MB; assay: MTS assay (cell growth inhibition), MDA-MB; type: cell-based; conditions: MDA-MB cells, 72 hours incubation with test compound; concentration not given
# Method in brief: as §1
# [6] = test system: DLD-1; assay: MTS assay (cell growth inhibition), DLD-1; type: cell-based; conditions: DLD-1 cells, 72 hours incubation with test compound; concentration not given
# Method in brief: as §1
smiles,measurement,setting,value
"COc1ccc(OC)c(-c2ccccc2CN2C(=O)c3cnc4[nH]ncc4c3C2=O)c1 [Example 143, 7-[(2′,5′-dimethoxybiphenyl-2-yl)methyl]pyrazolo[3,4-b]pyrrolo[3,4-d]pyridine-6,8(3H,7H)-done]",MTS CELL KILL DATA (% INHIBITION) Kato III,[1],C (C = <50% INHIBITION)
same,MTS CELL KILL DATA (% INHIBITION) PC-3,[2],A (A = 80-100% INHIBITION)
same,MTS CELL KILL DATA (% INHIBITION) PACA-2,[3],C (C = <50% INHIBITION)
same,MTS CELL KILL DATA (% INHIBITION) NCI-H1299,[4],C (C = <50% INHIBITION)
same,MTS CELL KILL DATA (% INHIBITION) MDA-MB,[5],A (A = 80-100% INHIBITION)
same,MTS CELL KILL DATA (% INHIBITION) DLD-1,[6],C (C = <50% INHIBITION)
same,melting point,,208 to 211 °C
